Calls of active or inactive are those of the source. The calls are words filed in the database; no cut-off is given here.
What was measured:
[1] = molecular target: T1, Corticotropin-releasing factor receptor 1 (Rattus norvegicus, UniProt P35353); assay: Displacement of [125I]ovine-CRF from CRF1 receptor in rat frontal cortex by rapid filtration technique; type: tissue-based
T1 sequence (P35353 whole entry): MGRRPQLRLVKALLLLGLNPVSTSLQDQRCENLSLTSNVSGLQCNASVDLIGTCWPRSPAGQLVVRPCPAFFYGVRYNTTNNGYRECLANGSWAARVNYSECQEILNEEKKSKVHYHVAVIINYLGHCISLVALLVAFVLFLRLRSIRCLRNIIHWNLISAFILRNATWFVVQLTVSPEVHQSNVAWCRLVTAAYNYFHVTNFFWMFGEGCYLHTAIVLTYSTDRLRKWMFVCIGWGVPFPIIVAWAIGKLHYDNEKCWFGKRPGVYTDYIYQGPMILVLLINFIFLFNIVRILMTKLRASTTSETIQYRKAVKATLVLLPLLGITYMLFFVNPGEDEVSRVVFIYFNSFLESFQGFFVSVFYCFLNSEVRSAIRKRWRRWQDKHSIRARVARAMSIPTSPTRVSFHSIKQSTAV

[2] = Intrinsic clearance in human liver microsomes at 1 uM; type: ADME, Microsome
[3] = molecular target: Corticotropin releasing hormone receptor 2 (Sus scrofa, UniProt B8Q4Z9); assay: Displacement of [125I]sauvagine from CRF2 receptor in pig choroid plexus by rapid filtration technique; type: tissue-based
Sequence of Corticotropin releasing hormone receptor 2 (B8Q4Z9 whole entry): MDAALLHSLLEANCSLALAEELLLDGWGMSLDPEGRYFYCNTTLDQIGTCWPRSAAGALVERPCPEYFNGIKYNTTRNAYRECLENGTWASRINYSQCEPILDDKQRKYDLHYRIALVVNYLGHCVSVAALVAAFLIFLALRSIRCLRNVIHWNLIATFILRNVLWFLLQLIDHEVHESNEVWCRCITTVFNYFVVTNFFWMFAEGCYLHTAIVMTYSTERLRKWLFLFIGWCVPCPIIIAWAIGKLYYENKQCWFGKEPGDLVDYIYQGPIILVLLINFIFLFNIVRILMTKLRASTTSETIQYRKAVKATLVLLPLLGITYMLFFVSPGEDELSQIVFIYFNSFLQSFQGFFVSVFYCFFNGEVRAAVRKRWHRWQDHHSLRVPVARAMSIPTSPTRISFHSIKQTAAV

Rattus norvegicus [4] = assay: Ex vivo receptor occupancy of CRF1 receptor in Sprague-Dawley rat brain at 10 mg/kg, po after 20 mins by autoradiography relative to [125I-tyrosine]sauvagine; type: functional
[5] = Fraction unbound in Sprague-Dawley rat plasma at 10 mg/kg, po after 3 hrs by equilibrium dialysis; type: ADME, organism-based; parameters: dose 10 mg/kg, route oral
Rattus norvegicus [6] = assay: Total plasma concentration in Sprague-Dawley rat at 10 mg/kg, po; type: ADME, organism-based; parameters: dose 10 mg/kg, route oral; conditions: in vivo
Rattus norvegicus [7] = assay: Plasma free concentration in Sprague-Dawley rat at 10 mg/kg, po; type: ADME, organism-based; parameters: dose 10 mg/kg, route oral; conditions: in vivo
Rattus norvegicus [8] = assay: Ex vivo receptor occupancy of CRF1 receptor in Sprague-Dawley rat brain at 3 mg/kg, po after 20 mins by autoradiography relative to [125I-tyrosine]sauvagine; type: functional
Rattus norvegicus [9] = assay: Anxiolytic activity in Sprague-Dawley rat at 3 mg/kg, po assessed as decrease in exit latency after 60 mins by defensive withdrawal test relative to control; type: functional
Rattus norvegicus [10] = assay: Anxiolytic activity in Sprague-Dawley rat at 1 mg/kg, po assessed as decrease in exit latency after 60 mins by defensive withdrawal test relative to control; type: functional
[11] = Cmax in Sprague-Dawley rat at 10 mg/kg, po dosed as aqueous suspension of 1% polysorbate 80 in 0.5% methylcellulose within 0.25 to 24 hrs; type: ADME, organism-based; parameters: dose 10 mg/kg, route oral; conditions: in vivo
Rattus norvegicus [12] = assay: Ex vivo receptor occupancy of CRF1 receptor in Sprague-Dawley rat brain at 1 mg/kg, po after 20 mins by autoradiography relative to [125I-tyrosine]sauvagine; type: functional
[13] = Volume of distribution at steady state in Sprague-Dawley rat 2 mg/kg, iv within 0.17 to 24 hrs; type: ADME, organism-based; parameters: dose 2 mg/kg, route intravenous; conditions: in vivo, read-out: Vdss
Rattus norvegicus [14] = assay: Anxiolytic activity in Sprague-Dawley rat at 10 mg/kg, po assessed as decrease in exit latency after 60 mins by defensive withdrawal test relative to control; type: functional; parameters: scale not given: the % may be the effect or the level left
[15] = Half life in Sprague-Dawley rat 2 mg/kg, iv within 0.17 to 24 hrs; type: ADME, organism-based; parameters: dose 2 mg/kg, route intravenous; conditions: in vivo
[16] = AUC in Sprague-Dawley rat at 10 mg/kg, po dosed as aqueous suspension of 1% polysorbate 80 in 0.5% methylcellulose within 0.25 to 24 hrs; type: ADME, organism-based; parameters: time 0.25-24 hr, dose 10 mg/kg, route oral; conditions: in vivo
[17] = Oral bioavailability in Sprague-Dawley rat at 10 mg/kg dosed as aqueous suspension of 1% polysorbate 80 in 0.5% methylcellulose within 0.25 to 24 hrs; type: ADME, organism-based; conditions: in vivo
[18] = Clearance in Sprague-Dawley rat 2 mg/kg, iv within 0.17 to 24 hrs; type: ADME, organism-based; parameters: dose 2 mg/kg, route intravenous; conditions: in vivo

SMILES: Cc1cc(C)c(Nc2nc(Cl)cn([C@H](C)C3CC3)c2=O)cc1C
- IC50 [1]: 4.8 nM

SMILES: Cc1cc(C)c(Nc2nc(Cl)cn([C@H](C)C3CC3)c2=O)c(Cl)c1
- CLint scaled at 1 µM [2]: 140 mL/min/kg
- IC50 [1]: 0.98 nM

SMILES: CC[C@H](C)[C@H](NC(=O)[C@@H](NC(=O)[C@H](CC(=O)O)NC(=O)[C@H](CC(C)C)NC(=O)[C@H](CC(C)C)NC(=O)[C@H](CC(C)C)NC(=O)[C@H](CCCNC(=N)N)NC(=O)[C@H](CC(N)=O)NC(=O)[C@H](CC(N)=O)NC(=O)[C@H](C)NC(=O)[C@H](C)NC(=O)[C@H](CCC(N)=O)NC(=O)[C@H](CCC(N)=O)NC(=O)[C@H](CCCCN)NC(=O)[C@H](CCC(=O)O)NC(=O)[C@H](CCCCN)NC(=O)[C@H](CCC(=O)O)NC(=O)[C@H](CCC(N)=O)NC(=O)[C@H](CCCCN)NC(=O)[C@H](CCC(=O)O)NC(=O)[C@@H](NC(=O)[C@H](CCC(=O)O)NC(=O)[C@@H](NC(=O)[C@H](CCSC)NC(=O)[C@H](CCCCN)NC(=O)[C@H](CCCNC(=N)N)NC(=O)[C@H](CC(C)C)NC(=O)[C@H](CC(C)C)NC(=O)[C@H](CCC(=O)O)NC(=O)[C@H](CC(C)C)NC(=O)[C@H](CO)NC(=O)[C@H](CC(C)C)NC(=O)[C@H](CC(=O)O)NC(=O)[C@@H](NC(=O)[C@H](CO)NC(=O)[C@@H](NC(=O)[C@@H]1CCCN1C(=O)[C@@H]1CCCN1C(=O)CNC(=O)[C@@H]1CCC(=O)N1)[C@@H](C)CC)[C@@H](C)CC)[C@@H](C)CC)[C@@H](C)CC)[C@@H](C)O)C(N)=O [SAUVAGINE]
- IC50 [3]: 0.58 nM

SMILES: CC[C@H](C1CC1)n1cc(Cl)nc(Nc2c(Cl)cc(OC)cc2Cl)c1=O
- CLint scaled at 1 µM [2]: 400 mL/min/kg
- IC50 [1]: 0.44 nM

SMILES: COc1cc(Cl)c(Nc2nc(Cl)cn([C@H](C)C3CC3)c2=O)cc1F
- CLint scaled at 1 µM [2]: 180 mL/min/kg
- IC50 [1]: 8.2 nM

SMILES: CCCC(CCC)n1cc(Cl)nc(Nc2c(Cl)cc(C(F)(F)F)cc2Cl)c1=O
- CLint scaled at 1 µM [2]: 110 mL/min/kg
- IC50 [1]: 3.7 nM

SMILES: C[C@H](C1CC1)n1cc(Cl)nc(Nc2c(Cl)cc(OC(F)F)cc2Cl)c1=O
- CLint scaled at 1 µM [2]: 22 mL/min/kg
- IC50 [1]: 0.46 nM

SMILES: CC[C@H](C1CC1)n1cc(Cl)nc(Nc2c(C)cc(C)cc2C)c1=O
- CLint scaled at 1 µM [2]: 340 mL/min/kg

SMILES: Cc1cc(C#N)cc(Cl)c1Nc1nc(Cl)cn([C@H](C)C2CC2)c1=O
- Activity (Rattus norvegicus [4]): 34%
- fraction unbound at 3 h [5]: 0.044
- CLint scaled at 1 µM [2]: 38 mL/min/kg
- IC50 [1]: 2.9 nM
- concentration (Rattus norvegicus [6]): 250 nM
- Cp(f) (Rattus norvegicus [7]): 11 nM

SMILES: COC[C@@H](C)n1cc(Cl)nc(Nc2c(Cl)cc(C(F)(F)F)cc2Cl)c1=O
- CLint scaled at 1 µM [2]: 32 mL/min/kg
- IC50 [1]: 11 nM

SMILES: C[C@H](C1CC1)n1cc(Cl)nc(Nc2c(Cl)cc(Cl)cc2Cl)c1=O
- IC50 [1]: 0.91 nM

SMILES: COC[C@@H](C)n1cc(Cl)nc(Nc2c(Cl)cc(C#N)cc2Cl)c1=O
- CLint scaled at 1 µM [2]: 35 mL/min/kg
- IC50 [1]: 18 nM

SMILES: C[C@H](C1CC1)n1cc(Cl)nc(Nc2c(Cl)cc(S(C)(=O)=O)cc2Cl)c1=O
- IC50 [1]: 63 nM

SMILES: CC[C@H](C1CC1)n1cc(Cl)nc(Nc2c(Cl)cc(C(F)(F)F)cc2Cl)c1=O
- CLint scaled at 1 µM [2]: 89 mL/min/kg
- IC50 [1]: 1.3 nM

SMILES: C[C@H](C1CC1)n1cc(Cl)nc(Nc2c(Cl)cc(C(F)(F)F)cc2Cl)c1=O
- Activity (Rattus norvegicus [8]): inactive
- Activity (Rattus norvegicus [4]): 81%
- fraction unbound at 3 h [5]: 0.0033
- Activity (Rattus norvegicus [9]): inactive
- CLint scaled at 1 µM [2]: 10 mL/min/kg
- Activity (Rattus norvegicus [10]): inactive
- IC50 [1]: 4.1 nM
- Cmax [11]: 490 nM
- concentration (Rattus norvegicus [6]): 2000 nM
- Activity (Rattus norvegicus [12]): inactive
- Cp(f) (Rattus norvegicus [7]): 6.7 nM
- Vd [13]: 24 L/kg
- Activity (Rattus norvegicus [14]): 68%
- half-life [15]: 17 h
- AUC [16]: 7.35 µM·h
- bioavailability [17]: 37%
- clearance [18]: 21 mL/min/kg

SMILES: Cc1cc(C)c(Nc2nc(Cl)cn([C@H](C)C3CC3)c2=O)c(C)c1
- CLint scaled at 1 µM [2]: 180 mL/min/kg

SMILES: CC[C@H](C1CC1)n1cc(Cl)nc(Nc2c(Cl)cc(OC(F)(F)F)cc2Cl)c1=O
- CLint scaled at 1 µM [2]: 77 mL/min/kg
- IC50 [1]: 1.8 nM

SMILES: Cc1cc(Cl)cc(Cl)c1Nc1nc(Cl)cn([C@H](C)C2CC2)c1=O
- CLint scaled at 1 µM [2]: 44 mL/min/kg
- IC50 [1]: 1.2 nM

SMILES: CC[C@H](COC)n1cc(Cl)nc(Nc2c(Cl)cc(C#N)cc2Cl)c1=O
- CLint scaled at 1 µM [2]: 210 mL/min/kg
- IC50 [1]: 1.7 nM

SMILES: C[C@H](C1CC1)n1cc(Cl)nc(Nc2c(Cl)cc(OC(F)(F)F)cc2Cl)c1=O
- CLint scaled at 1 µM [2]: 30 mL/min/kg
- IC50 [1]: 6.5 nM
